Measured values reported in ChEMBL document CHEMBL4004848, “Dregamine and tabernaemontanine derivatives as ABCB1 modulators on resistant cancer cells” (Eur J Med Chem, 2017).

How the values were obtained:
[1] = target: T1, ATP-dependent translocase ABCB1 (Homo sapiens, UniProt P08183); assay: Inhibition of human ABCB1 expressed in mouse L5178Y cells pretreated for 10 mins followed by rhodamine-123 addition after 20 mins by flow cytometry; format: cell-based
[2] = target: T1, ATP-dependent translocase ABCB1; assay: Inhibition of human ABCB1 expressed in mouse L5178Y cells assessed as fluorescence activity ratio at 20 uM pretreated for 10 mins followed by rhodamine-123 addition after 20 mins by flow cytometry; format: cell-based
[3] = target: T1, ATP-dependent translocase ABCB1; assay: Inhibition of human ABCB1 expressed in mouse L5178Y cells assessed as increase in rhodamine-123 accumulation by measuring forward scatter count of cells at 2 uM pretreated for 10 mins followed by rhodamine-123 addition after 20 mins by flow cytometry (reference value: 2206); format: cell-based
[4] = target: T1, ATP-dependent translocase ABCB1; assay: Inhibition of human ABCB1 expressed in mouse L5178Y cells assessed as increase in rhodamine-123 accumulation by measuring side scatter count of cells at 20 uM pretreated for 10 mins followed by rhodamine-123 addition after 20 mins by flow cytometry (reference value: 903); format: cell-based
NIH3T3 = assay: Cytotoxicity against mouse NIH/3T3 cells after 24 hrs by MTT assay; format: cell-based; conditions: NIH3T3, 24 h
L5178Y = assay: Cytotoxicity against mouse L5178Y cells after 24 hrs by MTT assay; format: functional, cell-based
[5] = target: T1, ATP-dependent translocase ABCB1; assay: Inhibition of human ABCB1 expressed in mouse L5178Y cells assessed as fluorescence activity ratio at 2 uM pretreated for 10 mins followed by rhodamine-123 addition after 20 mins by flow cytometry; format: cell-based
[6] = target: T1, ATP-dependent translocase ABCB1; assay: Inhibition of human ABCB1 expressed in mouse L5178Y cells assessed as increase in rhodamine-123 accumulation by measuring forward scatter count of cells at 20 uM pretreated for 10 mins followed by rhodamine-123 addition after 20 mins by flow cytometry (reference value: 2206); format: cell-based
[7] = target: T1, ATP-dependent translocase ABCB1; assay: Inhibition of human ABCB1 expressed in mouse L5178Y cells assessed as increase in rhodamine-123 accumulation by measuring side scatter count of cells at 2 uM pretreated for 10 mins followed by rhodamine-123 addition after 20 mins by flow cytometry (reference value: 903); format: cell-based
[8] = Selectivity index, ratio of IC50 for mouse L5178Y cells to IC50 for human ABCB1 expressed in L5178Y cells
[9] = Selectivity index, ratio of IC50 for mouse NIH/3T3 cells to IC50 for mouse L5178Y cells; format: functional
[10] = target: T1, ATP-dependent translocase ABCB1; assay: Inhibition of human ABCB1 expressed in mouse L5178Y cells assessed as potentiation of doxorubicin-induced cytotoxicity by measuring combination index at 2:25 doxorubicin to compound ratio after 48 hrs by MTT assay; format: cell-based
[11] = target: T1, ATP-dependent translocase ABCB1; assay: Inhibition of human ABCB1 expressed in mouse L5178Y cells assessed as potentiation of doxorubicin-induced cytotoxicity by measuring combination index at 2:5 doxorubicin to compound ratio after 48 hrs by MTT assay; format: cell-based

T1 sequence (P08183 whole entry): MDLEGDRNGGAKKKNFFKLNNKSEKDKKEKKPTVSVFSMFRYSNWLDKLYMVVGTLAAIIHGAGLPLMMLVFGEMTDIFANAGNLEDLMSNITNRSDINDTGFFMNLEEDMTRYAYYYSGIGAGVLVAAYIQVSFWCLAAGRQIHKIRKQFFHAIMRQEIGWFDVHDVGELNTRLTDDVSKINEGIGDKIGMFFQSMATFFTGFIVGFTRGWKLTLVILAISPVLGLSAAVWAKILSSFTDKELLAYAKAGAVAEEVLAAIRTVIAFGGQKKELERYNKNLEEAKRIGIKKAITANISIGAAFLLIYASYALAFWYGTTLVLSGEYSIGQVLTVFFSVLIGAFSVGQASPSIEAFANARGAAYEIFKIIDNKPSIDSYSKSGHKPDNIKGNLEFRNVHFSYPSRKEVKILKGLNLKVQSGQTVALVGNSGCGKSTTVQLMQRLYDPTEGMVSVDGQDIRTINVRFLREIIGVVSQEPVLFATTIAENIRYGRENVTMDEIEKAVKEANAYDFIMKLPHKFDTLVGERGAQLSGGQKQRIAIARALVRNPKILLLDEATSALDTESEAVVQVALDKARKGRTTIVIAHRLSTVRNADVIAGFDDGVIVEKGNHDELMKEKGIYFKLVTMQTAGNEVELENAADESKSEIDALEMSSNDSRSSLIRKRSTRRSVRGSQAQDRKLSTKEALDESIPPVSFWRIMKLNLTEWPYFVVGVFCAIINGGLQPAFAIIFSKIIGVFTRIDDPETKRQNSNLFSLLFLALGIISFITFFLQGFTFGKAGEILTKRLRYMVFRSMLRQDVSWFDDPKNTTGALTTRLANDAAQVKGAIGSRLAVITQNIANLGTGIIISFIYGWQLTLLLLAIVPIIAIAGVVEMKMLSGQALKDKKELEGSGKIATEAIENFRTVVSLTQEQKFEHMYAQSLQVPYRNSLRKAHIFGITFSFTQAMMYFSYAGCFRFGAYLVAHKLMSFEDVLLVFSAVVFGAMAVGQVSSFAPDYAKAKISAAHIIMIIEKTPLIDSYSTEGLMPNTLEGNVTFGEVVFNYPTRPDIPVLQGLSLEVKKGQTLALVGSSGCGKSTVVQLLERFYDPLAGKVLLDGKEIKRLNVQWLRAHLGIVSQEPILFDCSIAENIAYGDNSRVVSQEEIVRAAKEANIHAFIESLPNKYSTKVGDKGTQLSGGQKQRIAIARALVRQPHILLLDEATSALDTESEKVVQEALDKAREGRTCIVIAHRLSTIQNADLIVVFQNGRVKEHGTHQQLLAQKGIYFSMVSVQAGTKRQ

| inhibition (INH) [1] | Ratio [2] | Activity [3] | Activity [4] | Ratio [5] | Activity [6] | Activity [7] | SMILES | IC50 (NIH3T3) [µM] | IC50 (L5178Y) [µM] | Ratio IC50 [8] | Ratio IC50 [9] | CI [10] | CI [11] |
| --- | --- | --- | --- | --- | --- | --- | --- | --- | --- | --- | --- | --- | --- |
| Dose-dependent effect | 15.35 | 2353 | 1098 | 1.79 | 2240 | 1081 | CC[C@H]1CN(C)[C@H]2Cc3c([nH]c4ccccc34)C(=O)C[C@H]1[C@@H]2C(=O)OC | > 100 | 82.4 | – | – | – | – |
| Dose-dependent effect | 59.65 | 2129 | 955 | 5.49 | 2046 | 941 | CC[C@@H]1CN(C)[C@H]2Cc3c([nH]c4ccccc34)/C(=N/Nc3ccccc3)C[C@H]1[C@@H]2C(=O)OC | 19.9 | 11.4 | 0.67 | 1.74 | 0.2 | – |
| – | 56.22 | 2152 | 992 | 57.99 | 1947 | 1049 | CC[C@H]1CN(C)[C@H]2Cc3c([nH]c4ccccc34)/C(=N/Nc3ccc(Br)cn3)C[C@H]1[C@@H]2C(=O)OC | 86.5 | 35.6 | 0.89 | 2.43 | 0.28 | – |
| – | 70.82 | 2294 | 765 | 84.19 | 2225 | 804 | CC[C@@H]1CN(C)[C@H]2Cc3c([nH]c4ccccc34)/C(=N/Nc3ccc(Br)cn3)C[C@H]1[C@@H]2C(=O)OC | 83.2 | 29.2 | 0.78 | 2.85 | 0.19 | – |
| Dose-dependent effect | 7.31 | 2237 | 781 | 1.26 | 2304 | 789 | CC[C@@H]1CN(C)[C@H]2Cc3c([nH]c4ccccc34)/C(=N/O)C[C@H]1[C@@H]2C(=O)OC | > 100 | 60.1 | 0.7 | – | 0.36 | – |
| Dose-dependent effect | 60.79 | 2227 | 1038 | 8.49 | 2229 | 1058 | CC[C@H]1CN(C)[C@H]2Cc3c([nH]c4ccccc34)/C(=N/Nc3cnccn3)C[C@H]1[C@@H]2C(=O)OC | > 100 | 75 | 0.88 | – | – | 0.1 |
| Dose-dependent effect | 18.09 | 2440 | 1213 | 2.42 | 2447 | 1226 | C/C=C/C(=O)O[C@H]1C[C@@H]2[C@@H](CC)CN(C)[C@@H](Cc3c1[nH]c1ccccc31)[C@H]2C(=O)OC | > 100 | 90.3 | – | – | – | – |
| Dose-dependent effect | 2.24 | 2312 | 756 | 1.16 | 2380 | 778 | CC[C@H]1CN(C)[C@H]2Cc3c([nH]c4ccccc34)/C(=N/NC(N)=O)C[C@H]1[C@@H]2C(=O)OC | > 100 | > 100 | – | – | – | – |
| Dose-dependent effect | 46.7 | 2435 | 1197 | 1.81 | 2428 | 1214 | CC[C@H]1CN(C)[C@H]2Cc3c(n(C)c4ccccc34)C(=O)C[C@H]1[C@@H]2C(=O)OC | > 100 | 40.4 | 0.45 | – | – | 0.24 |
| Dose-dependent effect | 46.47 | 2184 | 1037 | 1.93 | 2162 | 1025 | CC[C@H]1CN(C)[C@H]2Cc3c([nH]c4ccccc34)/C(=N/N)C[C@H]1[C@@H]2C(=O)OC | > 100 | 69.8 | 0.95 | – | – | – |
| Dose-dependent effect | 1.38 | 2182 | 1033 | 0.77 | 2180 | 1146 | CC[C@@H]1CN(C)[C@H]2Cc3c([nH]c4ccccc34)C(=O)C[C@H]1[C@@H]2C(=O)OC | > 100 | 56.8 | – | – | – | – |
| Dose-dependent effect | 18.46 | 2191 | 918 | 1.32 | 2172 | 927 | CC[C@@H]1CN(C)[C@H]2Cc3c([nH]c4ccccc34)/C(=N/N)C[C@H]1[C@@H]2C(=O)OC | 95 | 46.6 | 0.96 | 1.36 | – | – |
| Dose-dependent effect | 3.87 | 2156 | 912 | 0.85 | 2182 | 958 | CC[C@H]1CN(C)[C@H]2Cc3c([nH]c4ccccc34)/C(=N/O)C[C@H]1[C@@H]2C(=O)OC | 35.8 | 13 | 0.77 | 2.75 | – | – |
| Dose-dependent effect | 52.93 | 2415 | 1192 | 2.56 | 2440 | 1214 | CC[C@H]1CN(C)[C@H]2Cc3c(n(CCN(CC)CC)c4ccccc34)C(=O)C[C@H]1[C@@H]2C(=O)OC | > 100 | 67.1 | – | – | – | – |
| Dose-dependent effect | 78.79 | 2283 | 765 | 10.28 | 2265 | 793 | CC[C@@H]1CN(C)[C@H]2Cc3c([nH]c4ccccc34)/C(=N/Nc3cnccn3)C[C@H]1[C@@H]2C(=O)OC | > 100 | 63.9 | – | – | – | 0.31 |
| Dose-dependent effect | 1.36 | 2251 | 788 | 0.88 | 2083 | 793 | CC[C@@H]1CN(C)[C@H]2Cc3c([nH]c4ccccc34)[C@@H](O)C[C@H]1[C@@H]2C(=O)OC | > 100 | 55.6 | 0.66 | – | – | 0.4 |
| Dose-dependent effect | 12.1 | 2436 | 1204 | 0.95 | 2449 | 1197 | CC[C@H]1CN(C)[C@H]2Cc3c(n(C(=O)c4cccc(C)c4)c4ccccc34)C(=O)C[C@H]1[C@@H]2C(=O)OC | > 100 | > 100 | – | – | – | – |
| Dose-dependent effect | 2.12 | 2410 | 770 | 1.04 | 2389 | 793 | CC[C@@H]1CN(C)[C@H]2Cc3c([nH]c4ccccc34)/C(=N/NC(N)=O)C[C@H]1[C@@H]2C(=O)OC | > 100 | > 100 | – | – | – | – |
| Dose-dependent effect | 8.61 | 2450 | 1203 | 1.08 | 2442 | 1209 | CC[C@@H]1CN(C)[C@H]2Cc3c([nH]c4ccccc34)[C@@H](OC(=O)C34CC5CC(CC(C5)C3)C4)C[C@H]1[C@@H]2C(=O)OC | > 100 | > 100 | – | – | – | – |
| Dose-dependent effect | 5.18 | 2212 | 797 | 1.03 | 2199 | 809 | CC[C@H]1CN(C)[C@H]2Cc3c([nH]c4ccccc34)[C@@H](O)C[C@H]1[C@@H]2C(=O)OC | > 100 | > 100 | – | – | – | – |
| – | – | – | 1078 | – | 2611 | – | COc1ccc(CCN(C)CCCC(C#N)(c2ccc(OC)c(OC)c2)C(C)C)cc1OC (stereo not drawn) | – | – | – | – | – | – |
